From patent publication US7812025B2, “Brain/neuronal cell-protecting agent and therapeutic agent for sleep disorder” (Takeda Pharmaceutical Company Limited, priority 2005, dated 2010) come the findings set out here.

The experiment concerns the target T1, Human FAAH (Homo sapiens, UniProt O00519).
T1 construct: made in house; 10000 g pellet suspended in M-PER
T1 sequence (O00519 1-579): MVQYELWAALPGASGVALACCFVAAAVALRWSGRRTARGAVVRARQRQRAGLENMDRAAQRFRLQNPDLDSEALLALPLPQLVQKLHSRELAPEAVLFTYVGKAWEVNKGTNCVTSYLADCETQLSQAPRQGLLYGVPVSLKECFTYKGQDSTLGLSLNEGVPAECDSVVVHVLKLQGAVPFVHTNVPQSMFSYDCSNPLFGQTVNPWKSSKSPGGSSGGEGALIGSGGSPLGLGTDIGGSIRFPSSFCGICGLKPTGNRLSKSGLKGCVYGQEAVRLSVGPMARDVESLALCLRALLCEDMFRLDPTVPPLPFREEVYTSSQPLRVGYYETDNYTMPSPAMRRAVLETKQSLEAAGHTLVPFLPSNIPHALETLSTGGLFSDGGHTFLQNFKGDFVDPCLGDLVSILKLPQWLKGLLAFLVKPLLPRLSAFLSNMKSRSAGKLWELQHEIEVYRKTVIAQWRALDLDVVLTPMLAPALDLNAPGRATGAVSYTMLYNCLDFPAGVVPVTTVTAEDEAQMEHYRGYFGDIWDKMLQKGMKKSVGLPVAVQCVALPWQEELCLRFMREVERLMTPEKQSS
Description: Measurement of FAAH inhibitory activity (enzyme fraction from CHO-K1/human FAAH, substrate anandamide [ethanolamine 1-3H]). The format is biochemical. Particulars: 1 μM test compound; 25 nM anandamide [ethanolamine 1-3H]; 60 ng enzyme fraction; 37° C. for 30 minutes; pH 9.0; read-out: Human FAAH Inhibition Rate at 1 μM (%). As to the method:
Measurement of FAAH Inhibitory Activity
(1) Preparation of Enzyme Fraction
The FAAH gene was cloned by PCR. That is, a human brain library was used as a cDNA library, 5′-[…]-3′ [SEQ ID NO:1] and 5′-[…]-3′ [SEQ ID NO:2] were used as a primer set, and KOD DNA polymerase (Toyobo Co., Ltd.) was used as a DNA polymerase. One cycle of the reaction comprises 95° C. for 30 sec, 55° C. for 30 sec and 72° C. for 2 min, and 45 cycles of the reaction was carried out to obtain an amplified fragment. The amplified fragment was cleaved with restriction enzymes EcoRI and SalI, and then was inserted into a pMSRα vector which had been cleaved with the same restriction enzymes EcoRI and SalI to obtain a pMSRα-human FAAH. A cell line CHO-K1 and the above-obtained plasmid were subjected to a method known per se to prepare the cell line CHO-K1/human FAAH in which human FAAH was stably expressed. The CHO-K1/human FAAH was cultured in a CO2 incubator at 37° C., using a medium (Ham's F-12 medium supplemented with final concentration 10% of fetal bovine serum (FBS) and final concentration 800 μg/ml of G418), and then the cells were harvested. After washing with PBS, the cells were suspended in a buffer (10 mM Tris, 1 mM EDTA and 10 mM MgCl2, all at final concentrations) and disrupted with a Polytron homogenizer. After centrifugation at 900 g, the supernatant was recovered and further centrifuged at 10000 g. A pellet obtained therefrom was suspended in M-PER (Catalog No. 78501; PIERCE) to give an enzyme fraction.
Using a white walled 96-well plate (Coster Corp.), the test compound at various concentrations, 60 ng of the enzyme fraction and the substrate anandamide [ethanolamine 1-^3H] (final concentration 25 nM) were reacted in 50 μl of a reaction buffer (125 mM Tris-HCl (pH 9.0), 1 mM EDTA, 0.4 mM HEPES, 0.2% glycerol and 0.02% Triton X-100, all at final concentrations) at 37° C. for 30 minutes. The reaction mixture was transferred to a 96-well MultiScreen-HA filter plate (Millipore Corp.) and then was left to stand overnight at room temperature in order to allow the unreacted substrate to be adsorbed on the filter. The plate was washed with PBS using a MultiScreen Vacuum Manifold (Millipore Corp.) and dried. To each well, 50 μl of liquid scintillation cocktail was added and stirred, and then counting was performed with a TopCount (Perkin-Elmer Corp.). The count of a sample containing a solvent instead of the test compound was taken as 0%, and the count at zero time was taken as 100%, to calculate the inhibitory activity of the compound.
In general, inhibition refers to the relative decrease from the control value, in per cent. On to `O=C(Nc1cccnc1)N1CCN(c2cc(-c3ccccc3)ccn2)CC1` [Example 4, 4-(4-Phenylpyridin-2-yl)-N-pyridin-3-ylpiperazine-1-carboxamide], for which the inhibition at 1 µM stood at 74%.

Take `O=C(Nc1cccnc1)N1CCN(c2ccc(-c3ccccc3)cc2)CC1` [Example 14, 4-Biphenyl-4-yl-N-pyridin-3-ylpiperazine-1-carboxamide]: the inhibition at 1 µM worked out at 101%.

Take `O=C(Nc1cccnc1)N1CCN(c2ccc(-c3ccccc3)cn2)CC1` [Example 8, 4-(5-Phenylpyridin-2-yl)-N-pyridin-3-ylpiperazine-1-carboxamide]: the inhibition at 1 µM turned out to be 98%.

Regarding `O=C(Nc1cccnc1)N1CCN(c2cccc(-c3ccsc3)c2)CC1` [Example 12, N-Pyridin-3-yl-4-[3-(3-thienyl)phenyl]piperazine-1-carboxamide], the inhibition at 1 µM is 104%.

As for `Cc1noc(NC(=O)N2CCN(c3ccc(-c4ccccc4)cn3)CC2)c1C` [Example 7, N-(3,4-Dimethylisoxazol-5-yl)-4-(5-phenylpyridin-2-yl)piperazine-1-carboxamide], the inhibition at 1 µM is 102%.

For `O=C(Nc1cccnn1)N1CCN(c2cc(-c3ccccc3)ccn2)CC1` [Example 6, 4-(4-Phenylpyridin-2-yl)-N-pyridazin-3-ylpiperazine-1-carboxamide], the inhibition at 1 µM was determined as 91%.

As for `Cc1noc(NC(=O)N2CCN(c3ccc(-c4ccccc4)cc3)CC2)c1C` [Example 15, 4-Biphenyl-4-yl-N-(3,4-dimethylisoxazol-5-yl)piperazine-1-carboxamide], the inhibition at 1 µM turned out to be 102%.

As to `Cc1noc(NC(=O)N2CCN(c3cc(-c4ccccc4)ccn3)CC2)c1C` [Example 5, N-(3,4-Dimethylisoxazol-5-yl)-4-(4-phenylpyridin-2-yl)piperazine-1-carboxamide], the inhibition at 1 µM stood at 94%.

Turning to `CC(=O)Nc1ccc(NC(=O)N2CCN(c3cccc(-c4ccsc4)c3)CC2)cc1` [Example 10, N-[4-(Acetylamino)phenyl]-4-[3-(3-thienyl)phenyl]piperazine-1-carboxamide], the inhibition at 1 µM stood at 108%.

For the compound `O=C(Nc1cccnc1)N1CCN(c2cccc(-c3ccoc3)c2)CC1` [Example 13, 4-[3-(3-Furyl)phenyl]-N-pyridin-3-ylpiperazine-1-carboxamide], the inhibition at 1 µM amounted to 104%.

On to `O=C(Nc1cccnn1)N1CCN(c2cccc(-c3ccccc3)c2)CC1` [Example 9, 4-Biphenyl-3-yl-N-pyridazin-3-ylpiperazine-1-carboxamide], for which the inhibition at 1 µM came to 105%.

Turning to `CC(=O)Nc1ccc(NC(=O)N2CCN(c3cccc(-c4ccccc4)c3)CC2)cn1` [Example 3, N-[6-(Acetylamino)pyridin-3-yl]-4-biphenyl-3-ylpiperazine-1-carboxamide], the inhibition at 1 µM was 101%.

`Cc1noc(NC(=O)N2CCN(c3cccc(-c4ccsc4)c3)CC2)c1C` [Example 11, N-(3,4-Dimethylisoxazol-5-yl)-4-[3-(3-thienyl)phenyl]piperazine-1-carboxamide]: the inhibition at 1 µM came to 100%.

Consider `Cc1noc(NC(=O)N2CCN(c3cccc(-c4ccccc4)c3)CC2)c1C` [Example 2, 4-Biphenyl-3-yl-N-(3,4-dimethylisoxazol-5-yl)piperazine-1-carboxamide], for which the inhibition at 1 µM amounted to 104%.

With `O=C(Nc1cccnc1)N1CCN(c2cccc(-c3ccccc3)c2)CC1` [Example 1, 4-Biphenyl-3-yl-N-pyridin-3-ylpiperazine-1-carboxamide], the inhibition at 1 µM is 103%.
